“Also recorded” adds a separate entry of the source.
How the values were obtained:
FhCL1 = biological target: T1, FhCL1 (Fasciola hepatica, UniProt Q7JNQ9); assay: FhCL1 inhibition screening, IC50 and slow-binding (fluorogenic substrate Z-VLK-AMC); format: biochemical; details: read-out: %Inh FhCL1, 10 µM compound, 20 min preincubation, relative to enzyme alone; SD less than 10%
T1 construct: made in house; host or cells: Hansenula polymorpha (yeast)
Description: (§1) Each compound was completely dissolved in dimethylsulfoxide (DMSO) to a concentration of 10 mM to prepare the stock solutions. To evaluate the inhibition of FhCL1 and FhCL3 by quinoxaline 1,4-di-N-oxide derivatives, nanomolar concentrations of each enzyme was incubated with compounds at 10 μM. Briefly, each enzyme and compound were preincubated 20 min in a 96-well plate in 0.1 M sodium phosphate buffer pH 6, 1 mM DTT, and 1 mM EDTA at room temperature. The reaction was initiated by adding 20 μM of substrate and enzyme activity was measured by the increase in aminomethyl coumarin (AMC) fluorescence as peptide substrates were hydrolyzed (Z-VLK-AMC for FhCL1 and Tos-GPR-AMC for FhCL3), at an excitation wavelength of 340 nm and emission wavelength of 440 nm using a spectrofluorometer (Varioskan Thermo, Waltham, MA, USA). Enzyme activity was expressed as RFU/s (relative fluorescence units of AMC released per second). Each compound was tested in triplicate. A control reaction without enzymes was performed to check for the occurrence of non-catalyzed reactions between substrates and inhibitors and a spectrum from 300 to 450 nm wavelength was done for each quinoxaline 1,4-di-N-oxide derivative to verify that none of them had optical activity in the measurement range. The percentage of enzyme inhibition was calculated as 100 − (vi/vo) × 100, where vi and vo correspond to the initial rate of AMC fluorescence increase (RFU/s) with and without inhibitor, respectively.
(§2) To calculate the IC50 values, compounds were incubated with each enzyme at seven different concentrations; 0.625, 1.25, 2.5, 5, 10, 20, and 40 μM. Then, the enzyme activity was measured in a 96-well plate as described before. We plotted initial rates (RFU/s) versus log10 of inhibitor concentrations and obtained the IC50 values by fitting the data to a sigmoid curve. We also carried out slow-binding assays to evaluate the time-dependence of the inhibition. Each compound was incubated at 10 μM with the enzyme for increasing lengths of time; 3 to 120 min and the percentage of inhibition at each time point was determined as described before. We calculated the inhibition percentage of the leader compounds at 10 μM for HsCL1. The enzyme was preincubated for 20 min with the compounds and the activity was measured in a 96-well plate in 400 mM sodium acetate, pH 5.5, with 4 mM EDTA, 8 mM DTT, and 20 μM of substrate Z-VLK-AMC. The percentage of enzyme inhibition was calculated as described for FhCL1 and FhCL3. We determined the IC50 value for C17 against HsCL by incubating the enzyme with four different concentrations of the compound 0, 10, 25, and 50 μM and measuring the activity as described before. We plotted initial rates (RFU/s) versus log10 of inhibitor concentration and obtained the IC50 value by fitting the data to a sigmoid curve.

FhCL3 = FhCL3 inhibition screening, IC50 and slow-binding (fluorogenic substrate Tos-GPR-AMC); format: biochemical, Fasciola hepatica; details: 10 µM compound, 20 min preincubation, relative to enzyme alone; SD less than 10%
Description: as §1, §2

F. hepatica NEJ = assay: In vitro culture of NEJ and treatment with inhibitors (motility score); format: cell-based, Fasciola hepatica; details: 50 μM compound, over 96 h
Description: F. hepatica metacercariae were acquired from Instituto Miguel C. Rubino (DILAVE, MGAP, Uruguay). NEJ were obtained by in vitro excystement as previously described with minor modifications. Briefly, metacercariae were incubated with 1% sodium hypochlorite for 5 min at room temperature to remove the outer cyst wall and then washed several times with PBS. Metacercariae activation was carried out in a medium prepared by mixing equal volumes of solution A (0.4% sodium taurocholate, 120 mM NaHCO3, 140 mM NaCl, pH 8.0) and solution B (50 mM HCl and 33 mM L-cysteine), and incubating at 39 °C until the NEJ begin to emerge (around 3–4 h). A 100 μm filter was used to retain the cyst wall. Collected NEJ were washed three times with RPMI-1640 supplemented with 200 U/mL Penicillin G sulfate, […] streptomycin sulfate, 500 ng/mL amphotericin B, 10 mM HEPES, counted and divided into groups of around 20 parasites that were transferred to 96 wells in tissue culture plates. Parasites were maintained at 37 °C, 5% CO2 in modified Basch’s medium. At day 1, each tested compound was added at a concentration of 50 μM in 0.5% DMSO. Also, 0.5% of DMSO was added to the control groups. Each condition was tested in duplicate. NEJ behavior was monitored under a light microscope (Olympus BX41, Hamburg, Germany), every day each well was recorded for a minute in order to assess parasite motility and registered using the following score: 3—normally active; 2—reduced activity (sporadic movement); 1—immotile (dead, adapted from). Control parasites were maintained in culture for seven days.

HepG2 cell line = assay: Cytotoxicity on the HepG2 cell line (Sulforhodamin B); format: cell-based; details: Homo sapiens, 24 h incubation with compound
Description: (§3) Cytotoxicity studies on the HepG2 cell line. Cells: 1.5 × 10^4 cells per 96-well plate were cultured in 225 µL of DMEM medium, supplemented with L-glutamine (1%), penicillin/streptomycin (1%), and 10% (v/v) fetal bovine serum (FBS). The cultures were maintained at 37 °C and 5% CO2 for 48 h. Treatment: Compound solutions were prepared just before dosing. Stock solutions, […], were prepared in 100% DMSO (Aldrich, Saint Louis, MO, USA) and 25 µL of adequate dilution was added to each well 24 h after plating the cells. For each compound, a dose-response curve was done with five different compound concentrations: 6.25, 12.5, 25, 50, and 100 µM (treated cells, T). No effect on cell growth was observed by the presence of 0.5% DMSO in the culture media (control cells, C). Cells were incubated with the compounds for 24 h at 37 °C in 5% CO2 atmosphere, then the medium was discarded and the cells were washed with PBS. The cells were then fixed with 50 µL of TCA (50%) and 200 µL of culture medium (without FBS) for 1 h at 4 °C. Then the cells were washed with purified water and treated with Sulforhodamin B (0.4% wt/vol in 1% acetic acid) for 10 min at room temperature. The plates were then washed with 1% acetic acid and dried overnight. Finally, 100 µL of Tris buffer (pH = 10.0) was added and absorbance read at 540 nm. Data calculations: The assays were done in four replicates. At the end of the experiment, the cell survival percentage (SP) was calculated for each compound as (T/C) × 100. To determine the IC50, the SP of cells at each compound concentration was plotted and the data were fitted to a sigmoid curve. The standard error was not greater than 10% for any condition. For the cytotoxicity assay with bovine spermatozoa, semen samples were obtained from a healthy fertile Hereford bull and kept frozen in 0.5 mL straws (extended in Andromed, Minitube, Tiefenbach, Germany) under liquid nitrogen until use. The semen used belonged to a single freezing batch that was obtained during a regular collection schedule with an artificial vagina. Samples from three straws were thawed and a sperm pool was prepared in PBS at a concentration of 80 million spermatozoa per ml. Then, 50 μL of this pool was carefully mixed with 50 μL of each compound to be tested at a concentration of 50 µM or 1% DMSO in control experiments. Each compound was assayed in triplicate in 96-well plates and controls were assayed in triplicate. Plates were incubated at 37 °C for 1 h with moderate shaking. The motility analysis was carried out using a CASA (Computer Assisted Semen Analyzer) system Androvision (Minitube, Tiefenbach, Germany) with an Olympus BX 41 microscope (Olympus, Japan) equipped with a warm-stage at 37 °C. Each sample (10 μL) was placed onto a Makler Counting Chamber (depth 10 μm, Sefi-Medical Instruments, Haifa, Israel) and the following parameters were evaluated: percentage of total motile spermatozoa (motility >5 μm/s) and velocity curved line (VCL > 24 μm/s). At least 400 spermatozoa were analyzed from each sample from at least four microscope fields.

bovine spermatozoa = assay: Cytotoxicity assay with bovine spermatozoa (CASA motility); format: cell-based; details: 50 µM, 1 h at 37 °C, relative to control sperm incubated with vehicle
Description: as §3

T1 sequence (Q7JNQ9 entry or part of it): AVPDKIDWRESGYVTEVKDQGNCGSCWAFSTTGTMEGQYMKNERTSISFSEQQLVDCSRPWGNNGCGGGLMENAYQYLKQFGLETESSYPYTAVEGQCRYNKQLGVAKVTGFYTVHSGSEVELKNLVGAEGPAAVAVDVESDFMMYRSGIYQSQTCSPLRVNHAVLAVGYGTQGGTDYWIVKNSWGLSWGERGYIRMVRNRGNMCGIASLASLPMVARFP

Compound | inhibition at 10 µM (FhCL1) | %Inh FhCL3 (FhCL3) | Effect on NEJ motility / fasciolicide activity in vitro (F. hepatica NEJ) | IC50 (HepG2 cell line) | Sperm Motility RTC (relative to control) (bovine spermatozoa)
Cc1c(C)[n+]([O-])c2cc(/C=N/NC(=O)NCCc3ccccc3)ccc2[n+]1[O-] [Compound C11] | 56% | 32% | did not have activity against the parasites |  | 
O=Cc1c[n+]([O-])c2ccccc2[n+]1[O-] [Compound C2] | 21% | 0% |  |  | 
C=CCNC(=S)N/N=C/c1ccc2c(c1)[n+]([O-])c(C#N)c(N)[n+]2[O-] [Compound C5] | 20% | 39% |  |  | 
C=CCN1C(=O)CS/C1=N/N=C/c1ccc2c(c1)[n+]([O-])c(C)c(C)[n+]2[O-] [Compound C12] | 0% | 22% |  |  | 
COC(=O)N/N=C/c1ccc2c(c1)[n+]([O-])c(C#N)c(N)[n+]2[O-] [Compound C4] | 0% | 27% |  |  | 
O=C(c1ccccc1)c1c(C(F)(F)F)[n+]([O-])c2ccccc2[n+]1[O-] [Compound C27] | 38% | 22% |  |  | 
CCN(C/C=C/c1ccccc1)c1ccc2c(c1)[n+]([O-])c(C(=O)Nc1ccccc1)c(C)[n+]2[O-] [Compound C21] | 47% | 54% | progressive decrease of parasite motility starting between 24 and 96 h of culture |  | 
O=C(c1ccccc1)c1c(C(F)(F)F)[n+]([O-])c2cc(F)c(F)cc2[n+]1[O-] [Compound C28] | 0% | 38% |  |  | 
C=CCNC(=S)N/N=C/c1ccc2c(c1)[n+]([O-])c(C(=O)Nc1ccccc1)c(C)[n+]2[O-] [Compound C20] | 72% | 0% |  |  | 
Cc1c(Sc2ccccc2)[n+]([O-])c2cc(Cl)c(Cl)cc2[n+]1[O-] [Compound C16] | 35% | 22% |  |  | 
Cc1c(C(=O)NCc2ccccc2)[n+]([O-])c2ccccc2[n+]1[O-] [Compound C25] | 47% | 40% |  |  | 
CCOC(=O)c1c(-c2ccccc2)[n+]([O-])c2cc(Cl)c(Cl)cc2[n+]1[O-] [Compound C19] | 54% | 35% | progressive decrease of parasite motility starting between 24 and 96 h of culture; also recorded: strong fasciolicide activity in vitro |  | 
C=CCn1c(-c2ccc(Cl)cc2)csc1=NN=Cc1ccc2c(c1)[n+]([O-])c(C)c(C)[n+]2[O-] [Compound C13] | 34% | 2% |  |  | 
CSc1nc2cc(Cl)c(Oc3cccc(Cl)c3Cl)cc2[nH]1 [TCBZ, triclabendazole, reference compound] |  |  |  | 32 ± 0.2 µM | 88 ± 1
CCOC(=O)c1c(C)[n+]([O-])c2ccccc2[n+]1[O-] [Compound C14] | 28% | 5% |  |  | 
N#Cc1c(N)[n+]([O-])c2cc(Cl)c(Cl)cc2[n+]1[O-] [Compound C9] | 15% | 0% |  |  | 
COC(=O)N/N=C/c1ccc2c(c1)[n+]([O-])c(C)c(C)[n+]2[O-] [Compound C10] | 13% | 3% |  |  | 
N#Cc1c(N)[n+]([O-])c2ccccc2[n+]1[O-] [Compound C3] | 30% | 0% |  |  | 
Cc1c[n+]([O-])c2ccccc2[n+]1[O-] [Compound C1] | 1% | 8% |  |  | 
Cc1c(C(=O)Nc2ccccc2)[n+]([O-])c2cc(CN3CCN(C/C=C/c4ccccc4)CC3)ccc2[n+]1[O-] [Compound C22] | 23% | 49% |  |  | 
CCCCNC(=O)N/N=C/c1ccc2c(c1)[n+]([O-])c(C#N)c(N)[n+]2[O-] [Compound C6] | 59% | 27% | did not have activity against the parasites |  | 
CCN(C/C=C/c1ccccc1)c1ccc2c(c1)[n+]([O-])c(C#N)c(N)[n+]2[O-] [Compound C8] | 24% | 45% |  |  | 
Cc1c(C(=O)c2ccccc2)[n+]([O-])c2cc(F)c(F)cc2[n+]1[O-] [Compound C26] | 41% | 17% |  |  | 
C=CCN1C(=O)CS/C1=N/N=C/c1ccc2c(c1)[n+]([O-])c(-c1ccccc1)c(C(=O)Nc1ccccc1)[n+]2[O-] [Compound C24] | ≥ 80% |  | progressive decrease of parasite motility starting between 24 and 96 h of culture; also recorded: strong fasciolicide activity in vitro | 16 ± 0.1 µM | 82 ± 1
C=CCNC(=S)N/N=C/c1ccc2c(c1)[n+]([O-])c(C(=O)OCC)c(C)[n+]2[O-] [Compound C15] | 38% | 58% | did not have activity against the parasites |  | 

— publication PMC6651555, “Cathepsin L Inhibitors with Activity against the Liver Fluke Identified From a Focus Library of Quinoxaline 1,4-di-N-Oxide Derivatives” (Molecules, 2019)
